Results: publication PMC2180168 (BMC Pharmacology, 2007)

How the values were obtained:
[1] = in vivo; conditions: CD1, mouse, plasma, ip
[2] = tested on: Hodgkin lymphoma cell lines; parameters: method as in PMID 11953894; conditions: cited from earlier work
[3] = tested on: multiple myeloma cell line; conditions: cited from earlier work
[4] = tested on: refractory/relapsed myeloma; conditions: patients with refractory/relapsed myeloma; cited from earlier work
[5] = tested on: anaplastic large cell lymphoma with NPM-ALK fusion protein cell lines; parameters: method as in PMID 11532349; conditions: cited from earlier work

AUC(0-t) ([1]; 12 mg/kg/d) [ng·h/mL]	AUC(0-t) ([1]; 12 mg/kg/day) [ng·h/mL]	half-life ([1]; 12 mg/kg/day) [min]	Structure (SMILES)	effect in Hodgkin lymphoma cell lines [2]	in vitro antiproliferative effect on a multiple myeloma cell line [3]	response in phase II trial [4]	effect in anaplastic large cell lymphoma cell lines [5]
17900	20000	14.4	COc1cc([C@@H]2c3cc4c(cc3[C@@H](O[C@@H]3O[C@@H]5CO[C@@H](C)O[C@H]5[C@H](O)[C@H]3O)[C@H]3COC(=O)[C@H]23)OCO4)cc(OC)c1O [etoposide]				
			Cc1ccc(NC(=O)c2ccc(CN3CCN(C)CC3)cc2)cc1Nc1nccc(-c2cccnc2)n1 [imatinib]	minimal effect	antiproliferative effect	no response	minimal effect
